Experimental data: paper PMC5218480 (PLoS ONE, 2017)

Tested on: MV-4-11 cells
Test: Gene expression microarray analysis (Affymetrix PrimeView) and GSEA
Type: cell-based, human
Set-up: RFU PODN (11730768_x_at) / Fold change /veh PODN (11730768_x_at) / RFU LINC00158 (11744669_a_at) / Fold change /veh LINC00158 (11744669_a_at) / RFU DUSP10 (11751237_a_at) / Fold change /veh DUSP10 (11751237_a_at) / RFU ID3 (11757404_x_at) / Fold change /veh ID3 (11757404_x_at) / RFU PLEKHG5 (11737974_s_at) / Fold change /veh PLEKHG5 (11737974_s_at) / RFU LRRC4B (11730491_at) / Fold change /veh LRRC4B (11730491_at) / RFU GIMAP4 (11747438_a_at) / Fold change /veh GIMAP4 (11747438_a_at) / RFU KRT8 (11758183_x_at) / Fold change /veh KRT8 (11758183_x_at) / RFU CNN1 (11734310_a_at) / Fold change /veh CNN1 (11734310_a_at) / RFU VPS37D (11726825_at) / Fold change /veh VPS37D (11726825_at) / RFU C10orf10 (11716522_x_at) / Fold change /veh C10orf10 (11716522_x_at) / RFU KIR2DL2 /// KIR2DL4 /// KIR2DL5A /// KIR2DL5B /// KIR2DS1 /// KIR2DS2 /// KIR2DS3 /// KIR2DS4 /// KIR3DL3 /// KIR3DL3 /// KIR3DS1 (11738374_at) / Fold change /veh KIR2DL2 /// KIR2DL4 /// KIR2DL5A /// KIR2DL5B /// KIR2DS1 /// KIR2DS2 /// KIR2DS3 /// KIR2DS4 /// KIR3DL3 /// KIR3DL3 /// KIR3DS1 (11738374_at) / RFU C1QL1 (11718748_at) / Fold change /veh C1QL1 (11718748_at) / RFU TMPRSS4 (11747572_a_at) / Fold change /veh TMPRSS4 (11747572_a_at) / RFU HAMP (11756126_x_at) / Fold change /veh HAMP (11756126_x_at) / RFU RNFT2 (11725882_a_at) / Fold change /veh RNFT2 (11725882_a_at) / RFU NR4A2 (11747474_a_at) / Fold change /veh NR4A2 (11747474_a_at) / RFU ABCC12 (11746883_a_at) / Fold change /veh ABCC12 (11746883_a_at) / RFU TMEM136 (11760407_x_at) / Fold change /veh TMEM136 (11760407_x_at) / RFU CLDN22 /// WWC2 (11732394_at) / Fold change /veh CLDN22 /// WWC2 (11732394_at) / RFU HLA-DPB1 (11760878_x_at) / Fold change /veh HLA-DPB1 (11760878_x_at) / RFU SPINT1 (11716480_a_at) / Fold change /veh SPINT1 (11716480_a_at) / RFU GAP43 (11754022_s_at) / Fold change /veh GAP43 (11754022_s_at) / RFU A4GNT (11735810_at) / Fold change /veh A4GNT (11735810_at) / RFU PRB3 (11715151_x_at) / Fold change /veh PRB3 (11715151_x_at) / RFU TUBB4B (11761932_at) / Fold change /veh TUBB4B (11761932_at) / RFU CAPN14 (11732068_a_at) / Fold change /veh CAPN14 (11732068_a_at) / RFU TMCC2 (11721928_a_at) / Fold change /veh TMCC2 (11721928_a_at) / RFU IRGQ (11745062_a_at) / Fold change /veh IRGQ (11745062_a_at) / RFU FAM174B (11720279_a_at) / Fold change /veh FAM174B (11720279_a_at) / RFU TMPRSS4 (11748680_a_at) / Fold change /veh TMPRSS4 (11748680_a_at) / RFU FAM212B (11763350_a_at) / Fold change /veh FAM212B (11763350_a_at) / RFU PLEKHG5 (11743358_a_at) / Fold change /veh PLEKHG5 (11743358_a_at) / RFU ZSCAN30 (11745921_a_at) / Fold change /veh ZSCAN30 (11745921_a_at) / RFU CMKLR1 (11741424_a_at) / Fold change /veh CMKLR1 (11741424_a_at) / RFU LOC101060620 /// MAPK8IP1 (11723275_at) / Fold change /veh LOC101060620 /// MAPK8IP1 (11723275_at) / RFU SPTSSB (11747773_x_at) / Fold change /veh SPTSSB (11747773_x_at) / RFU PRSS12 (11739890_at) / Fold change /veh PRSS12 (11739890_at) / RFU BIN1 (11741810_x_at) / Fold change /veh BIN1 (11741810_x_at) / RFU WNT11 (11732464_a_at) / Fold change /veh WNT11 (11732464_a_at) / RFU C10orf10 (11716521_a_at) / Fold change /veh C10orf10 (11716521_a_at) / RFU C5orf56 (11738089_at) / Fold change /veh C5orf56 (11738089_at) / RFU CYB561 (11721691_x_at) / Fold change /veh CYB561 (11721691_x_at) / RFU ANKRD19P (11752326_a_at) / Fold change /veh ANKRD19P (11752326_a_at) / RFU OR2T12 /// OR2T33 /// OR2T8 (11738714_s_at) / Fold change /veh OR2T12 /// OR2T33 /// OR2T8 (11738714_s_at) / RFU VCAN (11748164_a_at) / Fold change /veh VCAN (11748164_a_at) / RFU JSRP1 (11732532_at) / Fold change /veh JSRP1 (11732532_at) / RFU KRTAP10-11 (11738290_x_at) / Fold change /veh KRTAP10-11 (11738290_x_at) / RFU MYO3A (11730013_a_at) / Fold change /veh MYO3A (11730013_a_at) / RFU EBF3 (11725865_a_at) / Fold change /veh EBF3 (11725865_a_at) / RFU CAMK2N1 (11719241_x_at) / Fold change /veh CAMK2N1 (11719241_x_at) / RFU C5orf56 (11738088_a_at) / Fold change /veh C5orf56 (11738088_a_at) / RFU OLFML3 (11715873_a_at) / Fold change /veh OLFML3 (11715873_a_at) / RFU LOC100653217 /// NTM (11731650_a_at) / Fold change /veh LOC100653217 /// NTM (11731650_a_at) / RFU MAPK11 (11762145_a_at) / Fold change /veh MAPK11 (11762145_a_at) / RFU FIZ1 (11724087_x_at) / Fold change /veh FIZ1 (11724087_x_at) / RFU OASL (11726364_x_at) / Fold change /veh OASL (11726364_x_at) / RFU SOX15 (11748057_x_at) / Fold change /veh SOX15 (11748057_x_at) / RFU CD79A (11719716_a_at) / Fold change /veh CD79A (11719716_a_at) / RFU HIST1H1D (11736915_at) / Fold change /veh HIST1H1D (11736915_at) / RFU CASKIN2 (11723855_a_at) / Fold change /veh CASKIN2 (11723855_a_at) / RFU LOC730098 (11760151_x_at) / Fold change /veh LOC730098 (11760151_x_at) / RFU OR4N2 (11742367_at) / Fold change /veh OR4N2 (11742367_at) / RFU PRRT2 (11749266_a_at) / Fold change /veh PRRT2 (11749266_a_at) / RFU SNX32 (11753110_a_at) / Fold change /veh SNX32 (11753110_a_at) / RFU CDHR5 (11726645_a_at) / Fold change /veh CDHR5 (11726645_a_at) / RFU RCAN1 (11760418_a_at) / Fold change /veh RCAN1 (11760418_a_at) / RFU FAM167A (11723789_a_at) / Fold change /veh FAM167A (11723789_a_at) / RFU FAM26E (11764081_at) / Fold change /veh FAM26E (11764081_at) / RFU ISYNA1 (11749810_s_at) / Fold change /veh ISYNA1 (11749810_s_at) / RFU ACY1 (11761880_at) / Fold change /veh ACY1 (11761880_at) / RFU 11764098_at / Fold change /veh 11764098_at / RFU SAMD14 (11745864_x_at) / Fold change /veh SAMD14 (11745864_x_at) / RFU NPB (11741838_a_at) / Fold change /veh NPB (11741838_a_at) / RFU TMPRSS6 (11731388_a_at) / Fold change /veh TMPRSS6 (11731388_a_at) / RFU KRTAP10-2 (11738614_at) / Fold change /veh KRTAP10-2 (11738614_at) / RFU ARHGAP8 /// PRR5-ARHGAP8 (11727945_x_at) / Fold change /veh ARHGAP8 /// PRR5-ARHGAP8 (11727945_x_at) / RFU KRTAP5-7 /// NADSYN1 (11734609_at) / Fold change /veh KRTAP5-7 /// NADSYN1 (11734609_at) / RFU RASL12 (11751679_a_at) / Fold change /veh RASL12 (11751679_a_at) / RFU CDKN2B (11736163_a_at) / Fold change /veh CDKN2B (11736163_a_at) / RFU PRF1 (11729649_at) / Fold change /veh PRF1 (11729649_at) / RFU, ZNF638 /// ZNF638-IT1 / Fold change vs veh, ZNF638 /// ZNF638-IT1 / RFU, PANK3 / Fold change vs veh, PANK3 / RFU, SH3YL1 / Fold change vs veh, SH3YL1 / RFU, ZEB2 / Fold change vs veh, ZEB2 / RFU, NRIP1 / Fold change vs veh, NRIP1 / RFU, PTTG1IP / Fold change vs veh, PTTG1IP / RFU, CAPN2 / Fold change vs veh, CAPN2 / RFU, MED14 / Fold change vs veh, MED14 / RFU, SNORA58 / Fold change vs veh, SNORA58 / RFU, C1orf63 / Fold change vs veh, C1orf63 / RFU, LRRFIP1 / Fold change vs veh, LRRFIP1 / RFU, NDUFAF7 / Fold change vs veh, NDUFAF7 / RFU, SLC12A2 / Fold change vs veh, SLC12A2 / RFU, IBTK / Fold change vs veh, IBTK / RFU, ESF1 / Fold change vs veh, ESF1 / Fold change vs veh, TMEM50B / RFU, TAOK1 / Fold change vs veh, TAOK1 / RFU, ACBD3 / Fold change vs veh, ACBD3 / RFU, TMA16 / Fold change vs veh, TMA16 / RFU, RWDD3 / Fold change vs veh, RWDD3 / RFU, BCAT1 / Fold change vs veh, BCAT1 / RFU, EDEM3 / Fold change vs veh, EDEM3 / RFU, TMEM33 / Fold change vs veh, TMEM33 / RFU, WDR75 / Fold change vs veh, WDR75 / RFU, AHCTF1 / Fold change vs veh, AHCTF1 / RFU, TFRC / Fold change vs veh, TFRC / RFU, ZDHHC17 / Fold change vs veh, ZDHHC17 / RFU, NOM1 / Fold change vs veh, NOM1 / RFU, ARL8B / Fold change vs veh, ARL8B / RFU, ZBTB11 / Fold change vs veh, ZBTB11 / RFU, TAMM41 / Fold change vs veh, TAMM41 / RFU, KIAA1704 /// LOC100996395 / Fold change vs veh, KIAA1704 /// LOC100996395 / RFU, ING1 / Fold change vs veh, ING1 / RFU, TRMT61B / Fold change vs veh, TRMT61B / RFU, FUBP3 / Fold change vs veh, FUBP3 / RFU, TP53 / Fold change vs veh, TP53 / RFU, TNKS2 / Fold change vs veh, TNKS2 / RFU, ZFP14 / Fold change vs veh, ZFP14 / RFU, ACTR2 / Fold change vs veh, ACTR2 / RFU, PPP3R1 / Fold change vs veh, PPP3R1 / RFU, PIK3R1 / Fold change vs veh, PIK3R1 / RFU, HNRNPA1 / Fold change vs veh, HNRNPA1 / RFU, RNF170 / Fold change vs veh, RNF170 / RFU, ZNF28 / Fold change vs veh, ZNF28 / RFU, RNGTT / Fold change vs veh, RNGTT / RFU, OGT / Fold change vs veh, OGT / RFU, BRD1 / Fold change vs veh, BRD1 / RFU, MARS / Fold change vs veh, MARS / RFU, ZNF655 / Fold change vs veh, ZNF655 / RFU, FAHD1 / Fold change vs veh, FAHD1 / RFU, BDP1 / Fold change vs veh, BDP1 / RFU, LRRCC1 / Fold change vs veh, LRRCC1 / RFU, ARID1A / Fold change vs veh, ARID1A / RFU, ZNF146 / Fold change vs veh, ZNF146 / RFU, ZNF330 / Fold change vs veh, ZNF330 / RFU, GPN3 / Fold change vs veh, GPN3 / RFU, C9orf123 / Fold change vs veh, C9orf123 / RFU, N4BP2L2 / Fold change vs veh, N4BP2L2 / RFU, ARFIP1 / Fold change vs veh, ARFIP1 / RFU, FAM179B / Fold change vs veh, FAM179B / RFU, BCL10 / Fold change vs veh, BCL10 / RFU, UHRF1BP1L / Fold change vs veh, UHRF1BP1L / RFU, BET1 / Fold change vs veh, BET1 / RFU, CNOT2 / Fold change vs veh, CNOT2 / RFU, ZNF268 / Fold change vs veh, ZNF268 / Fold change vs veh, ZNF507 / RFU, DGCR2 / Fold change vs veh, DGCR2 / RFU, WDSUB1 / Fold change vs veh, WDSUB1 / Fold change vs veh, HSP90B1 /// MIR3652 / RFU, ADSS / Fold change vs veh, ADSS / RFU, GK / Fold change vs veh, GK / RFU, ZNF148 / Fold change vs veh, ZNF148 / RFU, TAF9 / Fold change vs veh, TAF9 / RFU, SLC1A5 / Fold change vs veh, SLC1A5 / RFU, SLMO2 / Fold change vs veh, SLMO2 / RFU, ABCC4 / Fold change vs veh, ABCC4 / RFU, LOC101060439 /// RAP1B / Fold change vs veh, LOC101060439 /// RAP1B / RFU, RFX7 / Fold change vs veh, RFX7 / RFU, GTPBP10 / Fold change vs veh, GTPBP10 / RFU, CNEP1R1 / Fold change vs veh, CNEP1R1 / RFU, BIVM-ERCC5 /// ERCC5 / Fold change vs veh, BIVM-ERCC5 /// ERCC5 / RFU, ILF3 / Fold change vs veh, ILF3 / RFU 11762660_at / Fold change /veh 11762660_at / RFU VCAN (11757783_s_at) / Fold change /veh VCAN (11757783_s_at) / RFU DDX43 (11728927_at) / Fold change /veh DDX43 (11728927_at) / RFU KRT8 (11758188_x_at) / Fold change /veh KRT8 (11758188_x_at) / RFU NKD1 (11759106_at) / Fold change /veh NKD1 (11759106_at) / RFU SRD5A1 (11742802_a_at) / Fold change /veh SRD5A1 (11742802_a_at) / RFU TPSAB1 /// TPSB2 (11721975_s_at) / Fold change /veh TPSAB1 /// TPSB2 (11721975_s_at) / RFU GSTM3 (11746129_a_at) / Fold change /veh GSTM3 (11746129_a_at) / RFU IL23R (11737362_x_at) / Fold change /veh IL23R (11737362_x_at) / RFU TMEM51 (11727254_a_at) / Fold change /veh TMEM51 (11727254_a_at) / RFU PIWIL2 (11732686_x_at) / Fold change /veh PIWIL2 (11732686_x_at) / RFU ORM1 (11744905_x_at) / Fold change /veh ORM1 (11744905_x_at) / RFU CCDC152 (11743942_at) / Fold change /veh CCDC152 (11743942_at) / RFU ECM1 (11717891_a_at) / Fold change /veh ECM1 (11717891_a_at) / RFU IL23R (11748794_a_at) / Fold change /veh IL23R (11748794_a_at) / RFU TNFAIP8L3 (11732012_x_at) / Fold change /veh TNFAIP8L3 (11732012_x_at) / RFU MBOAT4 (11741988_at) / Fold change /veh MBOAT4 (11741988_at) / RFU 11764193_at / Fold change /veh 11764193_at / RFU TMEM53 (11763286_at) / Fold change /veh TMEM53 (11763286_at) / RFU MAGEB2 (11727129_at) / Fold change /veh MAGEB2 (11727129_at) / RFU TMEM200A (11744735_a_at) / Fold change /veh TMEM200A (11744735_a_at) / RFU CCDC152 (11751479_a_at) / Fold change /veh CCDC152 (11751479_a_at) / RFU FAM211A (11726209_a_at) / Fold change /veh FAM211A (11726209_a_at) / RFU RGS16 (11746705_a_at) / Fold change /veh RGS16 (11746705_a_at) / RFU VCAN (11755009_s_at) / Fold change /veh VCAN (11755009_s_at) / RFU RHOB (11743442_s_at) / Fold change /veh RHOB (11743442_s_at) / RFU RGS16 (11720943_a_at) / Fold change /veh RGS16 (11720943_a_at) / RFU RGS16 (11720944_at) / Fold change /veh RGS16 (11720944_at) / RFU, VPS4B / Fold change vs veh, VPS4B / RFU, CREB1 / Fold change vs veh, CREB1 / RFU, DNAJC13 / Fold change vs veh, DNAJC13 / RFU, GNAQ / Fold change vs veh, GNAQ / RFU, CDK5R1 / Fold change vs veh, CDK5R1 / RFU, ZRANB3 / Fold change vs veh, ZRANB3 / RFU, CUL4A / Fold change vs veh, CUL4A / RFU, CCNY / Fold change vs veh, CCNY / RFU, UFL1 / Fold change vs veh, UFL1 / RFU, COG3 / Fold change vs veh, COG3 / RFU, DIAPH2 / Fold change vs veh, DIAPH2 / RFU, SKA2 / Fold change vs veh, SKA2 / RFU, AFF3 / Fold change vs veh, AFF3 / RFU, LMF1 / Fold change vs veh, LMF1 / RFU, IPO11 / Fold change vs veh, IPO11 / RFU, DFFB / Fold change vs veh, DFFB / RFU, FOXP1 / Fold change vs veh, FOXP1 / RFU, CARD8 / Fold change vs veh, CARD8 / RFU, STRN3 / Fold change vs veh, STRN3 / RFU, ADK / Fold change vs veh, ADK / RFU, RASSF2 / Fold change vs veh, RASSF2 / RFU, WIPF1 / Fold change vs veh, WIPF1 / RFU, LARP1B / Fold change vs veh, LARP1B / RFU, RASA1 / Fold change vs veh, RASA1 / RFU, RB1 / Fold change vs veh, RB1 / RFU, PPFIA1 / Fold change vs veh, PPFIA1 / RFU, MAT2A / Fold change vs veh, MAT2A / RFU, CCT5 / Fold change vs veh, CCT5 / RFU, WDR92 / Fold change vs veh, WDR92 / RFU, CUX1 / Fold change vs veh, CUX1 / RFU, TTC7A / Fold change vs veh, TTC7A / RFU, TMEM135 / Fold change vs veh, TMEM135 / RFU, DEPTOR / Fold change vs veh, DEPTOR / RFU, CPM / Fold change vs veh, CPM / RFU, DNAJB6 / Fold change vs veh, DNAJB6 / RFU, CACNA2D3 / Fold change vs veh, CACNA2D3 / RFU, DTX4 / Fold change vs veh, DTX4 / RFU, TFCP2 / Fold change vs veh, TFCP2 / RFU, GMCL1 /// GMCL1P1 / Fold change vs veh, GMCL1 /// GMCL1P1 / RFU, AEBP2 / Fold change vs veh, AEBP2 / RFU, SNHG1 /// SNORD22 /// SNORD25 /// SNORD26 /// SNORD27 /// SNORD28 /// SNORD29 /// SNORD31 / Fold change vs veh, SNHG1 /// SNORD22 /// SNORD25 /// SNORD26 /// SNORD27 /// SNORD28 /// SNORD29 /// SNORD31 / Fold change (Aza/veh), C12orf56 (ProbeSet 11735607_a_at) / Fold change (ACY-1035/veh), C12orf56 (ProbeSet 11735607_a_at) / Fold change (Aza/veh), FGFR1OP (ProbeSet 11751329_s_at) / Fold change (ACY-1035/veh), FGFR1OP (ProbeSet 11751329_s_at) / Fold change (Aza/veh), VPS36 (ProbeSet 11739960_a_at) / Fold change (ACY-1035/veh), VPS36 (ProbeSet 11739960_a_at) / RFU SYPL1 (11715823_x_at) / Fold change /veh SYPL1 (11715823_x_at) / RFU IGFBP7 (11715501_s_at) / Fold change /veh IGFBP7 (11715501_s_at) / RFU REEP3 (11722064_at) / Fold change /veh REEP3 (11722064_at) / RFU IGLL1 (11728026_x_at) / Fold change /veh IGLL1 (11728026_x_at): dose or concentration left out as unconfirmed
Settings: ProbeSet 11716999_a_at; LIST D

Nc1ccc(-c2cccs2)cc1NC(=O)c1ccc2c(c1)cc(C1CC1)n2CCN1CCOCC1 [ACY-1035]
RFU, RASA1: 200.63 RFU
